Measured values: ChEMBL document CHEMBL1126278, “New neplanocin analogues. 1. Synthesis of 6'-modified neplanocin A derivatives as broad-spectrum antiviral agents” (J Med Chem, 1992)
Values after ≈ are worked out from the molar mass of the structure shown.

Experiments:
HEL [1] = assay: Inhibitory effect on replication of DNA virus VZV (YS) on HEL cell line.; format: functional, cell-based; settings: Homo sapiens
HeLa [2] = assay: cells; settings: Homo sapiens
MDCK [3] = assay: Inhibitory effect on replication of RNA virus cell morphology in MDCK cell line.; format: functional, cell-based; settings: Canis lupus familiaris
HEL [4] = assay: Inhibitory effect on replication of DNA virus CMV (Davis) on HEL cell line.; format: functional, cell-based; settings: Homo sapiens
PRK [5] = assay: Inhibitory effect on replication of DNA virus Cell morphology on PRK cell line; format: functional, cell-based; settings: Oryctolagus cuniculus
Vero [6] = assay: Inhibitory effect on replication of RNA virus protein synthesis in Vero cell line.; format: functional, cell-based; settings: Chlorocebus sabaeus
Vero [7] = assay: Inhibitory effect on replication of virus protein synthesis in Vero cell line.; format: functional, cell-based; settings: Chlorocebus sabaeus
HEL [8] = assay: Inhibitory effect on replication of DNA virus CMV (AD-169) on HEL cell line.; format: functional, cell-based; settings: Homo sapiens
HEL [9] = assay: Inhibitory effect on replication of DNA virus VZV (Oka) on HEL cell line.; format: functional, cell-based; settings: Homo sapiens
Vero [10] = assay: Inhibitory effect on replication of RNA virus coxsB-4 in Vero cell line; format: functional, cell-based; settings: Chlorocebus sabaeus
PRK [11] = assay: Inhibitory effect on replication of RNA virus VSV in PRK cell line.; format: functional, cell-based; settings: Oryctolagus cuniculus
Vero [12] = assay: Inhibitory effect on replication of RNA virus cell morphology in Vero cell line.; format: functional, cell-based; settings: Chlorocebus sabaeus
MT4 [13] = assay: Inhibitory effect on replication of RNA virus cell growth in MT-4 cell line.; format: functional, cell-based; settings: Homo sapiens
PRK [14] = assay: Inhibitory effect on replication of RNA virus cell morphology in PRK cell line.; format: functional, cell-based; settings: Oryctolagus cuniculus
Vero [15] = assay: Inhibitory effect on replication of RNA virus SV in Vero cell line.; format: functional, cell-based; settings: Chlorocebus sabaeus
HeLa [16] = assay: Inhibitory effect on replication of RNA virus coxsB-4 in HeLa cell line.; format: functional, cell-based; settings: Homo sapiens
HEL [17] = assay: Inhibitory effect on replication of DNA virus TK-VZV (YSR) on HEL cell line.; format: functional, cell-based; settings: Homo sapiens
Vero [18] = assay: Inhibitory effect on replication of RNA virus JV in Vero cell line.; format: functional, cell-based; settings: Chlorocebus sabaeus
Vero [19] = assay: Inhibitory effect on replication of RNA virus reo-1 in Vero cell line.; format: functional, cell-based; settings: Chlorocebus sabaeus
[20] = (§1) Inhibitory effect on replication of DNA virus HSV-2 (G) in PRK cell line.; format: functional, cell-based; settings: Oryctolagus cuniculus
Vero [21] = assay: Inhibitory effect on replication of RNA virus TV in Vero cell line.; format: functional, cell-based; settings: Chlorocebus sabaeus
MDCK [22] = assay: cells; settings: Canis lupus familiaris
Vero [23] = assay: Inhibitory effect on replication of RNA virus measles on Vero cell line.; format: functional, cell-based; settings: Chlorocebus sabaeus
Vero [24] = assay: Inhibitory effect on replication of RNA virus PV-3 in Vero cell line.; format: functional, cell-based; settings: Chlorocebus sabaeus
MT4 [25] = assay: Inhibitory effect on replication of RNA virus HIV-1 in MT-4 cell line.; format: functional, cell-based; settings: Homo sapiens
[26] = Inhibitory effect on replication of DNA virus HSV-1 (KOS) in PRK cell line.; format: functional, cell-based; settings: Oryctolagus cuniculus
HEL [27] = assay: Inhibitory effect on replication of DNA virus TK-VZV (07-1) on HEL cell line.; format: functional, cell-based; settings: Homo sapiens
Vero [28] = assay: Inhibitory effect on replication of RNA virus SFV in Vero cell line; format: functional, cell-based; settings: Chlorocebus sabaeus
HEL [29] = assay: Inhibitory effect on replication of DNA virus Cell growth on HEL cell line.; format: functional, cell-based; settings: Homo sapiens
HeLa [30] = assay: Inhibitory effect on replication of RNA virus RSV in HeLa cell line; format: functional, cell-based; settings: Homo sapiens
MDCK [31] = assay: cells; settings: Canis lupus familiaris; remark: listed apart in the source
HeLa [32] = assay: Inhibitory effect on replication of RNA virus cell morphology in HeLa cell line.; format: functional, cell-based; settings: Homo sapiens
ESM [33] = assay: Inhibitory effect on replication of DNA virus TK-HSV-1 (B2006) on ESM cell line.; format: functional, cell-based
ESM [34] = assay: Inhibitory effect on replication of DNA virus Cell morphology on ESM cell line; format: functional, cell-based
[35] = as §1; format: functional, cell-based, herpes simplex virus; settings: Human alphaherpesvirus 1, PRK
ESM [36] = assay: Inhibitory effect on replication of DNA virus VV on ESM cell line.; format: functional, cell-based
ESM [37] = assay: Inhibitory effect on replication of DNA virus HSV-1 (KOS) in ESM cell line; format: functional, cell-based
PRK [38] = assay: Inhibitory effect on replication of DNA virus VV on PRK cell line.; format: functional, cell-based; settings: Oryctolagus cuniculus
Vero [39] = assay: Inhibitory effect on replication of RNA virus RNA synthesis in Vero cell line.; format: functional, cell-based; settings: Chlorocebus sabaeus
ESM [40] = assay: Inhibitory effect on replication of DNA virus HSV-2 (G) in ESM cell line; format: functional, cell-based
ESM [41] = assay: Inhibitory effect on replication of RNA virus cell morphology in ESM cell line.; format: functional, cell-based
ESM [42] = assay: Inhibitory effect on replication of DNA virus TK-HSV-1 (VMW 1837) on ESM cell line.; format: functional, cell-based
MT4 [43] = assay: Inhibitory effect on replication of RNA virus HIV-2 in MT-4 cell line.; format: functional, cell-based; settings: Homo sapiens
ESM [44] = assay: Inhibitory effect on replication of RNA virus VSV in ESM cell line.; format: functional, cell-based

Row | Compound | IC50 (HEL [1]) | IC50 (HeLa [2]) | IC50 (MDCK [3]) | IC50 (HEL [4]) | IC50 (PRK [5]) | IC50 (Vero [6]) | IC50 (HEL [8]) | IC50 (HEL [9]) | IC50 (Vero [10]) | IC50 (PRK [11]) | IC50 (Vero [12]) | IC50 (MT4 [13]) | IC50 (PRK [14]) | IC50 (Vero [15]) | IC50 (HeLa [16]) | IC50 (HEL [17]) | IC50 (Vero [18]) | IC50 (Vero [19]) | IC50 (Vero [21]) | IC50 (MDCK [22]) | also measured
1 | Nc1ncnc2c1ncn2[C@@H]1C=C(CCl)[C@@H](O)[C@H]1O | 2 µg/mL (≈ 7.1 µM) | > 40 µg/mL | 10 µg/mL (≈ 35.5 µM) | 0.7 µg/mL (≈ 2.48 µM) | 40 µg/mL (≈ 142 µM) | 0.8 µg/mL (≈ 2.84 µM) | 2 µg/mL (≈ 7.1 µM) | 2.5 µg/mL (≈ 8.87 µM) | > 40 µg/mL | 0.7 µg/mL (≈ 2.48 µM) | 40 µg/mL (≈ 142 µM) | 0.2 µg/mL (≈ 0.71 µM) | 40 µg/mL (≈ 142 µM) | > 40 µg/mL | > 40 µg/mL | 2 µg/mL (≈ 7.1 µM) | 2 µg/mL (≈ 7.1 µM) | 0.7 µg/mL (≈ 2.48 µM) | 2 µg/mL (≈ 7.1 µM) | > 10 µg/mL | IC50 (Vero [7]): 5 µg/mL (≈ 17.7 µM); IC50 [20]: > 20 µg/mL; IC50 (Vero [23]): 0.8 µg/mL (≈ 2.84 µM); IC50 (Vero [24]): 7 µg/mL (≈ 24.8 µM); IC50 (MT4 [25]): > 0.06 µg/mL; IC50 [26]: > 20 µg/mL; IC50 (HEL [27]): 1 µg/mL (≈ 3.55 µM); IC50 (Vero [28]): > 40 µg/mL; IC50 (HEL [29]): 9 µg/mL (≈ 31.9 µM); IC50 (HeLa [30]): 0.8 µg/mL (≈ 2.84 µM); IC50 (MDCK [31]): > 10 µg/mL
2 | C[C@@H](O)C1=C[C@@H](n2cnc3c(N)ncnc32)[C@H](O)[C@@H]1O | 65 µg/mL (≈ 234 µM) | > 400 µg/mL | > 100 µg/mL | 0.03 µg/mL (≈ 0.108 µM) | > 400 µg/mL | 56 µg/mL (≈ 202 µM) | 0.06 µg/mL (≈ 0.216 µM) | 21 µg/mL (≈ 75.7 µM) | > 200 µg/mL | 0.1 µg/mL (≈ 0.361 µM) | > 400 µg/mL | 0.09 µg/mL (≈ 0.325 µM) | > 400 µg/mL | 4 µg/mL (≈ 14.4 µM) | > 400 µg/mL | 6 µg/mL (≈ 21.6 µM) | 0.4 µg/mL (≈ 1.44 µM) | 0.04 µg/mL (≈ 0.144 µM) | 0.5 µg/mL (≈ 1.8 µM) | > 100 µg/mL | IC50 (HeLa [32]): > 400 µg/mL; IC50 (ESM [33]): 70 µg/mL (≈ 252 µM); IC50 (ESM [34]): > 400 µg/mL; IC50 [35]: > 200 µg/mL; IC50 (ESM [36]): 0.04 µg/mL (≈ 0.144 µM); IC50 (ESM [37]): > 400 µg/mL; IC50 (PRK [38]): 0.1 µg/mL (≈ 0.361 µM); IC50 (Vero [39]): 0.1 µg/mL (≈ 0.361 µM); IC50 (ESM [40]): > 400 µg/mL; IC50 (ESM [41]): > 400 µg/mL; IC50 (ESM [42]): 70 µg/mL (≈ 252 µM); IC50 (Vero [24]): 0.1 µg/mL (≈ 0.361 µM); IC50 (MT4 [25]): > 0.03 µg/mL; IC50 [26]: > 400 µg/mL; IC50 (HEL [27]): 38 µg/mL (≈ 137 µM); IC50 (Vero [28]): > 200 µg/mL; IC50 (MT4 [43]): > 0.03 µg/mL; IC50 (HEL [29]): > 200 µg/mL; IC50 (ESM [44]): 0.07 µg/mL (≈ 0.252 µM); IC50 (MDCK [31]): > 100 µg/mL
